Assay results taken from patent US8053585B2, “Protecting group for carboxylic acids that can be photolyzed by visible light” (Cornell Research Foundation, Inc., priority 2006, dated 2011).

Tests used:
Type in all cases: cell-based
[1] = tested on: GluR6 glutamate receptor; test: Stability in aqueous solution by whole-cell recording, cells used as glutamate detector; details: 2 mM solution, 24 h in the dark at −20° C., pH 7.4
Text: (§1) In whole-cell current recording experiments with DECM-caged glutamate, HEK 293 cells stably transfected with cDNA encoding the GluR6 were used. In whole-cell current recording experiments with DECM-caged glycine, HEK 293 cells were transiently transfected with the cDNA of the α1-subunit of the human glycine receptor by using the Polyfect™ transfection reagent (Qiagen GmbH, D-40724, Hilden, Germany). The cDNA of the α1-subunit was kindly provided by Professor H. Betz (Max-Plank-Institute for brain Research, Frankfurt, Germany). The cells were co-transfected with cDNA encoding the green fluorescent protein (pGreen Lantern plasmid, Life Technologies, Gaitherberg, Md.) to detect transfected cells (Chalfie et al., “Green Fluorescent Protein as a Marker for Gene Expression,” Science 263:802-805 (1994), which is hereby incorporated by reference in its entirety).
(§2) The cells were used for electrophysiological experiments between 24 and 72 h after each passage. Whole-cell currents evoked by glutamate or glycine (100 μM) were recorded using the whole-cell configuration (Hamill et al., “Improved Patch-Clamp Techniques for High-Resolution Current Recording From Cells and Cell-Free Membrane Patches,” Pfluegers Arch 391:85-100 (1981), which is hereby incorporated by reference in its entirety) at room temperature, −60 mV, and pH 7.4. […]

[2] = molecular target: T1, α1-subunit of the human glycine receptor (Homo sapiens, UniProt P23415); test: Flash lamp photolysis of DECM-caged glycine on HEK 293 cells; details: 1 mM caged compound
T1 construct: expressed in transfected cells; host or cells: HEK 293 cells, transiently transfected (Polyfect), co-transfected with GFP plasmid as marker; cDNA from Prof; H. Betz
T1 sequence (P23415 29-457): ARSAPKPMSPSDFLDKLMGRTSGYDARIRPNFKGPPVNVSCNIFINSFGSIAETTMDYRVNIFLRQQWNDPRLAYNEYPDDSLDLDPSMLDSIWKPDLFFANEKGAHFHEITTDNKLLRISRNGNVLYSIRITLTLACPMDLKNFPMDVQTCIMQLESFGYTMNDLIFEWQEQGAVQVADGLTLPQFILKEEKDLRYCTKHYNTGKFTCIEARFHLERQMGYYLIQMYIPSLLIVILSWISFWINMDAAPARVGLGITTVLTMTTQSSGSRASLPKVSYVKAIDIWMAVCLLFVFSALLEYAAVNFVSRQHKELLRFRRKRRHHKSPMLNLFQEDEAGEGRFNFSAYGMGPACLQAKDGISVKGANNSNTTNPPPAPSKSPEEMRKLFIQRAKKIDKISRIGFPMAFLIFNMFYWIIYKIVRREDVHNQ
Procedure: The cells were used for electrophysiological experiments between 24 and 72 h after each passage. Whole-cell currents evoked by glutamate or glycine (100 μM) were recorded using the whole-cell configuration (Hamill et al., “Improved Patch-Clamp Techniques for High-Resolution Current Recording From Cells and Cell-Free Membrane Patches,” Pfluegers Arch 391:85-100 (1981), which is hereby incorporated by reference in its entirety) at room temperature, −60 mV, and pH 7.4. The experiments using DECM-caged glutamate were carried out in the absence or presence of 2 mM DECM-caged glutamate (FIG. 5A) or 1 mM 7-N,N-diethylamino-4-hydroxymethylcoumarin (2) (FIG. 5B). Alternatively, the experiments using DECM-caged glycine were carried out in the absence or presence of 1 mM DECM-caged-glycine (FIG. 10). The solution in the recording pipet contained 120 mM CsCl, 10 mM EGTA, and 10 mM HEPES, adjusted to pH 7.4. The HEK cell bath solution contained 150 mM NaCl, 1 mM CaCl2, 10 mM HEPES, pH 7.4. The resistance of the recording electrode filled with buffer solution was typically 3-5 MΩ and the series resistance was 5-6 MΩ. The cells were held at a constant transmembrane voltage of −60 mV and room temperature (22° C.). Whole-cell currents were amplified by using an Axopatch 200B (Axon Instruments, Foster City, Calif.) amplifier and filtered at 1-5 kHz by using a […], low-pass, Bessel (Dagan Corporation, Minneapolis, Minn.) filter incorporated in the amplifier. The filtered signal was digitized by a Digidata 1322A (Axon Instruments, Union City, Calif.) or a Labmaster DMA 100 KHz digitizing board (Scientific Solutions, Mentor, Ohio) controlled by pCLAMP9 software (Axon Instruments).
The light produced by the Rapp (Rapp OptoElectronics, Hamburg, Germany) xenon flash lamp (SP-20) was coupled into an optical fiber (600 μm internal diameter), which delivered the light to the cell. The concentration of DECM-caged-glycine used was 1 mM for the results in FIG. 11. Typical light energies were 150-250 μJ per pulse. […] Data were analyzed with Microcal Origin3.5 software (Microcal, Northampton, Mass.).

[3] = molecular target: T2, α1-subunit human glycine receptor (Homo sapiens, UniProt P23415); test: Stability in aqueous solution by whole-cell current recording, cells used as glycine detector; details: 1 mM solution, 20 hours in the dark, pH 7.4
T2 construct: expressed in transfected cells; host or cells: HEK 293 cells, transiently transfected (Polyfect), co-transfected with GFP plasmid as marker; cDNA from Prof; H. Betz
T2 sequence (P23415 29-457): T1 sequence (P23415 29-457)
Text: as §1, §2

CCN(CC)c1ccc2c(COC(=O)CCC(N)C(=O)O)cc(=O)oc2c1 (centres unmarked) [DECM-caged glutamate, (7-N,N-Diethylaminocoumarin-4-yl)-methyl-glutamate-trifluoroacetate]
free glutamate in solution of caged compound [1]: no free glutamate was detected

CCN(CC)c1ccc2c(COC(=O)CN)cc(=O)oc2c1 [DECM-caged glycine, (7-N,N-Diethylaminocoumarin-4-yl)-methyl-glycine-trifluoroacetate]
concentration of liberated glycine ([2]; flash-lamp light pulse, 250 μJ): 60 µM | I∞, current at t=∞ ([2]; −60 mV, pH 7.4, 22° C.): −4950±57 pA | kobs, apparent pseudo first-order rate constant of the current rise ([2]; −60 mV, pH 7.4, 22° C.): 125 ± 16 s⁻¹ | free glycine in solution of caged compound [3]: no free glycine was detected
